Broadly, the AUC(0-t) is the area under the concentration-time curve up to a stated or last time point. A word on the MRT last: it is a mean duration of stay, worked out from the concentration-time curve. Usually half-life stands for the time in which the quantity being followed falls by half. In general, Cmax refers to the highest concentration seen after dosing. A word on the Tmax: it is the time from dosing to the highest level.

One series has as its system HIV-1 env and gag mRNA. Description: HIV-1 env and gag mRNA expression by real-time RT-PCR in infected CEM T cells. In kind it is cell-based. Particulars: 10 μM 1E7-03, DP1, DP3; 5 μM AZT, 3TC; in words. Here is the method:
For quantitative analysis of HIV-1 RNA, CEM T cells were infected with HIV-1-LUC-G virus. Cells were treated with 10 μM 1E7-03, 10 μM DP1, 10 μM DP3, 5 μM AZT or 5 μM 3TC and control cells were untreated or treated with DMSO. Total RNA was isolated using Trizol Reagent (Invitrogen, Carlsbad, CA) according to the manufacturer's protocol. Total RNA (100 ng) was reverse transcribed to cDNA using Superscript™ RT-PCR kit (Invitrogen, Carlsbad, CA). Hexamers and oligo-dT were used as primers. For real-time PCR analysis, cDNA was amplified using Roche LightCycler 480 (Roche Diagnostics) and SYBR Green1 Master mix (Roche Diagnostics). PCR was run for 45 cycles and each cycle included denaturation at 95°C for 10 seconds, annealing at 60°C for 10 seconds, and extension at 72°C for 10 seconds. Quantification of env and gag was carried using 18S RNA as a normalization standard. Quantification of housekeeping genes, β-actin and RSP13 was carried relative to 18S RNA. Mean Cp values were determined and ΔΔCt method was used to calculate relative expression levels. Unpaired t-test was used to test statistical significance.
The following primer sequences were used: env, forward - […], reverse-[…]; gag, forward- […], reverse- […]; β-actin, forward- […], reverse-[…]; RSP13, forward- […], reverse- […]; and 18SrRNA, forward- […], reverse- […].
(In general: Real-time PCR tracks product formation cycle by cycle.)

Series [1] in a line: Pharmacokinetic analysis in mice after i.p. injection. The settings on record: male, BALB/cJ, ip, mouse plasma after i.p. 100 mg/kg DP1-07; for AUC(0-t) / MRT last / half-life / Tmax: parent and products DP1-07P1, DP1-07P2; for Cmax: parent and products DP1-07P1, DP1-07P2 (quantified with DP1 and DP3 calibration curves); for Tmax: mouse, plasma, 100 mg/kg. In kind it is in vivo. Here is the method: The animal facilities and protocols were approved by Howard University Institutional Animal Care and Use Committee (IACUC). All experimental procedures were in accordance with the NIH Guidelines for the Care and Use of Laboratory Animals. BALB/cJ male mice (8 weeks old, 25–30 g) were purchased from Jackson Laboratory (Bar Harbor, ME, USA) and housed under pathogen-free conditions in HEPA-filtered cages and kept on a 12 h light/dark cycle. Compounds were administered to mice via intraperitoneal (i.p.) injection with maximum achievable doses of 30 mg/kg 1E7-03 (100 μl injection of 8 mM 1E7-03 in 80% DMSO/20% saline) and 100 mg/kg DP1-07 (100 μl injection of 100 mM DP1-07 in 40% propylene glycol/10% DMSO/50% saline). Blood samples were collected at different time points (15 min, 30 min, 1 hr, 3 hr, 6 hrs and 24 hrs) for each group (n=3 mice per group). For each sample, 20 μl of plasma was mixed with 80 μl cold acetone, and centrifuged at 13,000 rpm for 5 min. The supernatant was transferred to a clean test tube and dried in a SpeedVac concentrator. The residue was re-constituted in 50 μl of acetonitrile for LC-MS analysis. Calibration curves were prepared by spiking 1E7-03, DP1, DP3 and DP1-07 into the drug-free mouse plasma and subjected to similar sample extraction procedures. The plasma concentration–time profile of each analyte was constructed and pharmacokinetic parameters were determined by non-compartmental method using Phoenix WinNonlin Version 5.3 (Pharsight Corporation, Mountain View, CA).
A 10 μl aliquots from each sample were loaded to a LC-20AD nano HPLC system (Shimadzu Corporation, Columbia, MD, USA) coupled to LTQ XL Orbitrap mass spectrometer (Thermo Fisher Scientific) with the installed Xcalibur software (version 2.0.7, Thermo Fisher Scientific). Liquid chromatography was carried out on an in-house made nano-HPLC column (Polymicro Technologies Inc., Phoenix, AZ, USA) packed with reverse phase PolySulfoethyl A, 5μM, 200 Å (PolyLC Inc., Columbia, MD, USA). Mobile phase A was 0.1% formic acid in water and mobile phase B - 0.1% formic acid in acetonitrile. The elution was performed at a flow rate of 600 nl/min over 40 min using a multisegment linear gradient of mobile phase B as follows: 0–6.02 min, 1% B; 6.02–6.11 min, 1–2% B; 6.11–20 min, 2−80% B; 20–25 min, 80% B; 25–30 min, 80–85% B; 30–31 min, […]; 31–40 min, 2% B (v/v). The Orbitrap was operated under data-dependent acquisition mode. The spray voltage, capillary temperature and capillary voltage were set to 2.0 kV, 200 °C, and 39.5 V, respectively. Full-scan mass spectra were acquired in Orbitrap over 150−1500 m/z with a resolution of 30 000, followed by MS^n scans by CID activation mode. The precursor ions were fragmented with collision energy of 18 with activation Q of 0.25 and an activation time of 30 ms. Dynamic exclusion was enabled with a repeat count of 2, a repeat duration of 15 s, exclusion duration of 20 s, an exclusion list size of 50. The mass spectrometer was also operated in NL scan of m/z 18.01, 45.05, 71.03 and 72.02 and MRM mode. The MRM transitions were controlled by a segmented program in order to short the scan cycle and increase sensitivity.

The target in series [2] is T1, Recombinant PP1 (human PP1α residues 7–300) (Homo sapiens, UniProt P62136).
T1 construct: human PP1α (residues 7–300); His; made in house; host or cells: BL21 (DE3) Escherichia coli, co-expressed with GroEL/GroES chaperones
The experiment in a line: Surface plasmon resonance direct binding to immobilized PP1. The settings on record: SPR; for PP1 WT KD (M): 1:1 binding model, 25°C. Here is the method:
PP1 was purified as previously described. BL21 (DE3) Escherichia coli cells (Invitrogen, Carlsbad, CA, USA) were -transformed with a vector expressing human PP1α (residues 7–300) and pGR07, which expresses GroEL/[…] chaperones (both gifts from Dr Mathieu Bollen and Monique Beullens, KU Leuven, Belgium). The cells were grown in media supplemented with 1 mM MnCl2 at 30°C to an A600 =0.5. Arabinose (2 g per L) was added to induce expression of the GroEL/GroES chaperones. When A600 =1 was reached, the cells were transferred to 10°C and PP1 expression was induced with 0.1 mM Isopropyl β-D-1-thiogalactopyranoside for 20 hrs. Harvested cells were lysed using sonication in a solution containing in 50 mM Tris-HCl (pH 8.0), 5 mM imidazole, 700 mM NaCl, 1 mM MnCl2, 0.1% Triton X-100 (v/v) and protease inhibitors. His-tagged PP1 was purified using a Ni-NTA IMAC column (Qiagen, Valencia, CA, USA). Purified PP1 was dialyzed and stored at −70°C in 50 mM Tris-HCl (pH 8.0), 5 mM imidazole, 700 mM NaCl and 1 mM MnCl2. PP1 activity was then assayed as previously described.
The SPR measurements were conducted on Biacore T200 instrument (GE Healthcare, Piscataway, NJ) at 25°C. Recombinant PP1 was immobilized on a CM5 chip by amine coupling (GE Healthcare). PP1 (200 nM) was captured on flow cell 2 in 10 mM acetate buffer, pH 5.0, supplemented with 2 mM MnCl2. […] Flow cell 1 was used as a reference surface to subtract background signal. Also injections of the buffer alone were used to provide double reference subtraction. […] For binding and kinetics experiments, all compounds were diluted in the running buffer, at 40 μM, 20 μM, 10 μM, 5 μM, 2.5 μM, 1.25 μM and 0 μM and then passed over the two flow cells at a flow rate of 100 μl/min for 60 sec. The number of response units was recorded after the subtraction of the reference flow cell's value (Fc2-1). Two repetitions were performed for each injection. Data were analyzed using the BiaEvaluation software of Biacore with a 1:1 binding model. […] All the small molecular weight compounds were used at 1 μM.
On the technique in general: SPR reads the build-up and loss of mass on a sensor chip optically.

T1 sequence (P62136 7-300): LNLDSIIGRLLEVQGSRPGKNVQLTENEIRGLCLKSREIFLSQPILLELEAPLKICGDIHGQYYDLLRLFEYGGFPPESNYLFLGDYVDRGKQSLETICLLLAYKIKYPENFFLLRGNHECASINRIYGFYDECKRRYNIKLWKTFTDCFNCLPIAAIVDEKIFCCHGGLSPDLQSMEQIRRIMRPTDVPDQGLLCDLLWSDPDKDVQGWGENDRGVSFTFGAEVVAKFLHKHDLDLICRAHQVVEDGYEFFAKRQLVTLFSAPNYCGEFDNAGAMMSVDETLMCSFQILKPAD

With `Nc1ccn([C@@H]2CS[C@H](CO)O2)c(=O)n1` [3TC, lamivudine, reference compound], in the series with HIV-1 env and gag mRNA, the “HIV-1 env mRNA expression” value is listed as “strong inhibition” and the “HIV-1 gag mRNA expression” value was “strong inhibition”.

In the case of `Cc1cn([C@H]2C[C@H](N=[N+]=[N-])[C@@H](CO)O2)c(=O)[nH]c1=O` [AZT, azidothymidine, reference compound], in the series on HIV-1 env and gag mRNA, the “HIV-1 env mRNA expression” value was “strong inhibition” and the “HIV-1 gag mRNA expression” value was “strong inhibition”.

`COc1ccc(/C=C2\CCCc3c2nc2ccccc2c3C(=O)OC(C)C(=O)O)cc1OC` (centres unmarked) [DP1-07P1]: in series [1], the AUC(0-t) turned out to be 124 µM·h, the MRT last turned out to be 10.5 h, the half-life is 13.4 h and the Cmax came to 7.54 µM. The time of peak concentration (Tmax) in series [1] stood at 6 h.

On to `COc1ccc(/C=C2\CCCc3c2nc2ccccc2c3C(=O)O)cc1OC` [DP1-07P2], for which, in series [1], the AUC(0-t) is 288 µM·h, the MRT last came out at 8.86 h, the half-life is 4.66 h and the Cmax turned out to be 23.7 µM. Also, the Tmax in series [1] is 6 h.

As for `CC[C@H](C)[C@H](NC(=O)[C@H](Cc1ccccc1)NC(=O)[C@H](CS)NC(=O)[C@@H](NC(=O)[C@H](CCC(N)=O)NC(=O)[C@H](CS)NC(=O)[C@H](Cc1c[nH]cn1)NC(=O)[C@H](Cc1ccccc1)NC(=O)[C@H](CS)NC(=O)[C@H](CS)NC(=O)[C@H](CCCCN)NC(=O)[C@H](CCCCN)NC(=O)[C@H](CCCNC(=N)N)NC(=O)[C@H](CC(C)C)NC(=O)[C@@H]1CCCN1C(=O)[C@H](CO)NC(=O)[C@H](CO)NC(=O)[C@@H]1CCCN1C(=O)[C@H](Cc1ccccc1)NC(=O)[C@H](CCCCN)NC(=O)[C@H](Cc1ccc(O)cc1)NC(=O)[C@@H]1CCCN1C(=O)[C@H](COP(=O)(O)O)NC(=O)[C@H](CCCNC(=N)N)NC(=O)[C@@H]1CCCN1C(=O)[C@@H](NC(=O)[C@@H](N)Cc1c[nH]cn1)[C@@H](C)CC)C(C)C)C(=O)N[C@H](C(=O)N[C@@H](CCCCN)C(=O)O)[C@@H](C)O` [pRb-Tat, reference compound], the “times higher binding ability than 1E7-03, DP1 and DP3” value in series [2] is on record as 20-40 times.

For the compound “pRb-Tat mutant: mutant pRb-Tat peptide with QACA mutation in the RVxF motif (HIPRSPYKFPSSPLRKKCCFHCQACAITK) [reference compound]”, the entries for the “PP1 WT KD (M)” value in series [2] and in series [2] (listed as mutant pRb-Tat) were “No binding” and “did not bind”, respectively.

These data come from PMC5652740, “Inhibition of HIV-1 infection in humanized mice and metabolic stability of protein phosphatase-1-targeting small molecule 1E7-03” (Oncotarget, 2017).
